Experimental data taken from article PMC9787790, “Functional Characterization of Novel Bony Fish Lipoxygenase Isoforms and Their Possible Involvement in Inflammation” (International Journal of Molecular Sciences, 2022).

Tests used:
[1] = molecular target: T1, ALOX-isoform of P. nyererei (putative ALOX15 ortholog) (Pundamilia nyererei, UniProt A0A3B4GKQ4); assay: lysate supernatant oxygenation assay, RP-HPLC / NP-HPLC of products; assay type: biochemical; conditions: 100 µM AA; 3 min; products after reduction 12-HETE (major) and 8-HETE
T1 construct: gene alox12; cell lysate supernatant used (activity lost on purification)
T1 sequence (A0A3B4GKQ4 1-670): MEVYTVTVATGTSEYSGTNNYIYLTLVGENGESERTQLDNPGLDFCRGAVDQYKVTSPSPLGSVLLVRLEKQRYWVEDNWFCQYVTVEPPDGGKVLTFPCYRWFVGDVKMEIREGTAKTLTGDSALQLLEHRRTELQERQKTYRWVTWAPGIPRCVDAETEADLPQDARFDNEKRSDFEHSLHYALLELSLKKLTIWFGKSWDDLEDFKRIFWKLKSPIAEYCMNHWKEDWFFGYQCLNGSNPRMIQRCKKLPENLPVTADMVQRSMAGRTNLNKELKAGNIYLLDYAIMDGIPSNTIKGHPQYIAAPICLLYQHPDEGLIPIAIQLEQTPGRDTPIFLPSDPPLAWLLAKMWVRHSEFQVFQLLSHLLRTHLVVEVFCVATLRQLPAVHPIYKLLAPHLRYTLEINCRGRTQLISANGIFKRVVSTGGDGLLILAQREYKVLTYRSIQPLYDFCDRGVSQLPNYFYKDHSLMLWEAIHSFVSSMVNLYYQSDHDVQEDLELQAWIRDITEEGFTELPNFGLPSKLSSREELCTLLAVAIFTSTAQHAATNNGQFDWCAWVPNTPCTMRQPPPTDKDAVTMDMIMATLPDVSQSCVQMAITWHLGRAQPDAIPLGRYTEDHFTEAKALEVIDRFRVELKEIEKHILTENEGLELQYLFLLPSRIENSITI

[2] = molecular target: T2, ALOX-isoform of N. furzeri (putative ALOX15 ortholog) (Nothobranchius furzeri, UniProt A0A1A7ZHE9); assay: as above; assay type: biochemical; conditions: 100 µM AA; 3 min; products after reduction 12-HETE (major) and 8-HETE
T2 construct: gene ALOX12; cell lysate supernatant used (activity lost on purification)
T2 sequence (A0A1A7ZHE9 1-670): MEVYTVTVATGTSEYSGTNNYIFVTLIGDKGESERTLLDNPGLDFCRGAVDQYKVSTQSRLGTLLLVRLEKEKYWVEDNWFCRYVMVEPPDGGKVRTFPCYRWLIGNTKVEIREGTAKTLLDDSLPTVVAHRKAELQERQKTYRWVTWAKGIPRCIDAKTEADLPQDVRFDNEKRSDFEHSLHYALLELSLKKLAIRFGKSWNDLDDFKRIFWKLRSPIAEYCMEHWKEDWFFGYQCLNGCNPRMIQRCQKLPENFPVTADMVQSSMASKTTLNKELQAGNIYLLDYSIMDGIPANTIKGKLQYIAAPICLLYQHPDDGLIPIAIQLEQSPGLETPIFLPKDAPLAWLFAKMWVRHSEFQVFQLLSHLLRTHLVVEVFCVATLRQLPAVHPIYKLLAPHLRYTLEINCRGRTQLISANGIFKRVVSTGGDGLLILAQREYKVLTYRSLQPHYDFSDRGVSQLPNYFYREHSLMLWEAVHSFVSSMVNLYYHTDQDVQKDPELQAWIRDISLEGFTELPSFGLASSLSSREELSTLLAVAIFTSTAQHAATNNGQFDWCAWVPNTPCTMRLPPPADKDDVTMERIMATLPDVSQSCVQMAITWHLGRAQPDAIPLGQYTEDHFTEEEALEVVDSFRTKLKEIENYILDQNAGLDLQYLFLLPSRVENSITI

CCCCC/C=C\C/C=C\C/C=C\C/C=C\CCCC(=O)O [AA, arachidonic acid]
lysate supernatant oxygenation assay, RP-HPLC / NP-HPLC of products [1]: AA is oxygenated by the three bony fish ALOX-isoforms to a mixture of 12-HETE | lysate supernatant oxygenation assay, RP-HPLC / NP-HPLC of products [2]: AA is oxygenated by the three bony fish ALOX-isoforms to a mixture of 12-HETE
